Test results as given in US8361968B2 (Takeda Pharmaceutical Company Limited, priority 2002, dated 2013).
Square brackets hold non-standard residues; d marks the D form. Peptide text beside a SMILES is read from it. * marks the point of attachment. Butyryl(4-indol-3-yl) = O=C(CCCc1c[nH]c2ccccc12)*; Arg(Me) = CNC(=N)NCCC[C@H](N)C(=O)O; 4Pal = N[C@@H](Cc1ccncc1)C(=O)O; azaGly = NNC(=O)O

molecular target: hOT7T175 (Homo sapiens, UniProt Q969F8, L364H); assay: Intracellular Ca ion level-increasing activity using FLIPR in hOT7T175/CHO; assay type: cell-based; set-up: expressed in transfected cells; host or cells: CHO/dhfr- cells, obtained from ATCC; conditions: relative, Metastin (1-54) = 1
Sequence (Q969F8 whole entry L364H): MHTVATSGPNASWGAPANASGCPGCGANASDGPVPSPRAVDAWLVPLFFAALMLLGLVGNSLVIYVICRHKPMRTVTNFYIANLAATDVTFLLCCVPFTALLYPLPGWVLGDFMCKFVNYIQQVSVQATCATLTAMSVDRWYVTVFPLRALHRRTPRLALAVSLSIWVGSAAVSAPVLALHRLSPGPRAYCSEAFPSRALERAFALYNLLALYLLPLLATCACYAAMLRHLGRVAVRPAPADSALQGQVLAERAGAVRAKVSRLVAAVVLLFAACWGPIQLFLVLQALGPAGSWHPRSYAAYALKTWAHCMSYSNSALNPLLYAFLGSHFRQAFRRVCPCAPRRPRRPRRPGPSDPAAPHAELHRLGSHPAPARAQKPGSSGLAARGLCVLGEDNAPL

Compound	Specific Activity (intracellular Ca ion level-increasing activity)
CNC(=N)NCCC[C@H](NC(=O)[C@H](CC(C)C)NC(=O)NNC(=O)[C@H](Cc1ccccc1)NC(=O)[C@H](CO)NC(=O)[C@H](CC(N)=O)NC(=O)CCCc1c[nH]c2ccccc12)C(=O)N[C@@H](Cc1ccccc1)C(N)=O [Compound No. 267, 4-(3-Indolyl)butyryl-Asn-Ser-Phe-AzaGly-Leu-Arg(Me)-Phe-NH2] ({Butyryl(4-indol-3-yl)}-NSF[azaGly]L[Arg(Me)]F-NH2)	2
CC(C)C[C@H](NC(=O)CNC(=O)[C@H](Cc1ccccc1)NC(=O)[C@H](CO)NC(=O)[C@H](CC(N)=O)NC(=O)[C@H](Cc1c[nH]c2ccccc12)NC(=O)[C@H](CC(N)=O)NC(=O)[C@@H](N)Cc1ccc(O)cc1)C(=O)N[C@@H](CCCNC(=N)N)C(=O)N[C@@H](Cc1ccncc1)C(N)=O [Compound No. 17] (H-YNWNSFGLR[4Pal]-NH2)	5
CC(C)C[C@H](NC(=O)CNC(=O)[C@H](Cc1ccccc1)NC(=O)[C@H](CC(C)C)NC(=O)[C@H](CC(N)=O)NC(=O)[C@H](Cc1c[nH]c2ccccc12)NC(=O)[C@H](CC(N)=O)NC(=O)[C@@H](N)Cc1ccc(O)cc1)C(=O)N[C@@H](CCCNC(=N)N)C(=O)N[C@@H](Cc1ccccc1)C(N)=O [Compound No. 24] (H-YNWNLFGLRF-NH2)	1
CC(C)C[C@H](NC(=O)CNC(=O)[C@H](Cc1ccc(F)cc1)NC(=O)[C@H](CO)NC(=O)[C@H](CC(N)=O)NC(=O)[C@H](Cc1c[nH]c2ccccc12)NC(=O)[C@H](CC(N)=O)NC(=O)[C@@H](N)Cc1ccc(O)cc1)C(=O)N[C@@H](CCCNC(=N)N)C(=O)N[C@@H](Cc1ccccc1)C(N)=O [Compound No. 154, Tyr-Asn-Trp-Asn-Ser-Phe(4F)-Gly-Leu-Arg-Phe-NH2]	5

Other lines, results leading:

Specific Activity (intracellular Ca ion level-increasing activity)	Compound
5	CNC(=N)NCCC[C@H](NC(=O)[C@H](CC(C)C)NC(=O)NNC(=O)[C@H](Cc1ccccc1)NC(=O)[C@@H](NC(=O)[C@H](CC(N)=O)NC(=O)[C@H](Cc1c[nH]c2ccccc12)NC(=O)[C@@H](CC(N)=O)NC(=O)[C@H](N)Cc1ccc(O)cc1)[C@@H](C)O)C(=O)N[C@@H](Cc1ccccc1)C(N)=O [Compound No. 298, D-Tyr-D-Asn-Trp-Asn-Thr-Phe-AzaGly-Leu-Arg(Me)-Phe-NH2] (H-[dY][dN]WNTF[azaGly]L[Arg(Me)]F-NH2)
3	CNC(=N)NCCC[C@H](NC(=O)[C@H](CC(C)C)NC(=O)NNC(=O)[C@H](Cc1ccccc1)NC(=O)[C@H](CO)NC(=O)[C@H](CC(N)=O)NC(=O)[C@H](Cc1ccccc1)NC(=O)[C@@H](CC(N)=O)NC(=O)[C@H](N)Cc1ccc(O)cc1)C(=O)N[C@@H](Cc1ccccc1)C(N)=O [Compound No. 257, D-Tyr-D-Asn-Phe-Asn-Ser-Phe-AzaGly-Leu-Arg(Me)-Phe-NH2] (H-[dY][dN]FNSF[azaGly]L[Arg(Me)]F-NH2)
2	CNC(=N)NCCC[C@H](NC(=O)[C@H](CC(C)C)NC(=O)NNC(=O)[C@H](Cc1ccccc1)NC(=O)[C@H](CO)NC(=O)[C@H](CC(N)=O)NC(=O)[C@@H](Cc1c[nH]c2ccccc12)NC(=O)[C@H](N)Cc1ccc(O)cc1)C(=O)N[C@@H](Cc1ccccc1)C(N)=O [Compound No. 242, D-Tyr-D-Trp-Asn-Ser-Phe-AzaGly-Leu-Arg(Me)-Phe-NH2] (H-[dY][dW]NSF[azaGly]L[Arg(Me)]F-NH2)
1	CNC(=N)NCCC[C@H](NC(=O)[C@H](CC(C)C)NC(=O)NNC(=O)[C@H](Cc1ccccc1)NC(=O)[C@H](CO)NC(=O)[C@H](CC(N)=O)NC(=O)[C@H](Cc1ccccc1)NC(=O)[C@H](N)Cc1ccc(O)cc1)C(=O)N[C@@H](Cc1ccccc1)C(N)=O [Compound No. 254, D-Tyr-Phe-Asn-Ser-Phe-AzaGly-Leu-Arg(Me)-Phe-NH2] (H-[dY]FNSF[azaGly]L[Arg(Me)]F-NH2)
